Converted amounts (≈) assume the structure as drawn. Read-outs that look alike come from different tables or passages of the source.
How the values were obtained:
[1] = system: HCMV recombinant mutant virus; assay: microbe, parasite or virus in culture; assay type: cell-based, human cytomegalovirus; details: Human betaherpesvirus 5, read-out: IC50 (ug/ml) HCMV
Source text: Microtiter plate assay. Ninety-six well plate cultures of human foreskin fibroblasts are infected in the presence of inhibitor compound with a HCMV recombinant mutant virus whose genome contains the prokaryotic beta-glucuronidase gene (Jefferson, R. A., S. M. Burgess, and D. Hirsh. 1986. Beta-glucuronidase from Escherichia coli as a gene fusion marker. Proc. Natl. Acad. Sci. USA 83:8447-8451) whose expression is controlled by a viral promoter. An example of such a virus is RV145 (Jones, T. R., V. P. Muzithras, and Y. Gluzman. 1991. Replacement mutagenesis of the human cytomegalovirus genome: US10 and US11 gene products are nonessential. J. Virol. 65:5860-5872). Since it is under the control of a viral promoter, beta-glucuronidase expression is an indirect indicator of growth and replication of HCMV in this assay. At 96 hours post-infection, the infected cell lysates are prepared (using 50mM sodium phosphate [pH7.0] containing 0.1 % Triton X-100 and 0.1% sarkosyl) and assayed for beta-glucuronidase activity using a substrate for the enzyme which when cleaved yields either a product which can be measured colorimetrically in a spectrophotometer or fluorescently in a microfluorimeter. Examples of such substrates are p-nitrophenyl-beta-D-glucuronide and methylumbelliferylglucuronide, respectively. The presence of an antiviral compound is indicated by the reduced expression of the HCMV genome resident beta-glucuronidase gene, compared to the absence of inhibitor. […] Data from this assay generated using varying amounts of inhibitor compound is also used to estimate the IC50 of an inhibitor compound.

VZV strain Ellen = assay: VZV antiviral (ELISA) assay in human foreskin fibroblast cells; assay type: cell-based, varicella-zoster virus
Description: VZV antiviral (ELISA) assay
For the generation of stock VZV to be used in the assay, VZV strain Ellen (ATCC #VR-1367) is used to infect human foreskin fibroblast (HFF) cells at low multiplicity (less than 0.1) and incubated overnight at 37°C in 5% CO2. After the overnight incubation, the mixture of uninfected and VZV-infected HFF infected cells are then harvested and added to each well of 96-well plates (3.5x10^4 cells in 100 µl DMEM supplemented with 2% FBS) which contain test compound or the reference standard drug control (in 100µl DMEM supplemented with 2% FBS per well). These cells are incubated for three days at 37°C in 5% CO2, then fixed for ELISA assay. The primary antibody is murine anti-VZV glycoprotein II monoclonal antibody (Applied Biosystems, Inc. #13-145-100) and the secondary antibody is goat anti-mouse IgG linked to β-galactosidase. Thus the extent of viral replication is determined by assessing β-galactosidase activity by quantifying the generation of the 4-methyl umbelliferone fluorescent cleavage product after addition of the methyl umbelliferyl-β-D-galactoside (Sigma #M1633) substrate on a microfluorimeter (365nm for excitation and 450nm for emission). Antiviral activity (IC50) of the test compound is determined by comparing the flourescence obtained in absence of compound to that obtained in the presence of compound.

HSV-1 = assay: HSV antiviral (ELISA) assay in Vero cells; assay type: cell-based, herpes simplex virus type 1; details: read-out: IC50 (ug/ml) HSV
Description: HSV antiviral (ELISA) assay
Vero cells (ATCC #CCL-81) are plated on 96-well tissue culture plates at 3.5x10^4 cells per 100µl tissue culture DMEM (Dulbecco's modified Eagle media) supplemented with 2% fetal bovine serum (FBS) in each well. After overnight incubation @ 37°C (in 5% CO2) and 30 minutes prior to infection with HSV-1 (multiplicity of infection equal to 0.006), cells are either untreated, or treated with test compound (multiple concentrations) or reference standard drug control. After approximately 24 hours post-infection incubation @ 37°C (in 5% CO2), cells are fixed for ELISA assay. The primary antibody is murine anti-HSV glycoprotein D monoclonal primary antibody and the secondary antibody is goat anti-mouse IgG linked to β-galactosidase. Thus the extent of viral replication is determined by assessing β-galactosidase activity by quantifying the generation of the 4-methyl umbelliferone fluorescent cleavage product after addition of the methyl umbelliferyl-β-D-galactoside (Sigma #M1633) substrate on a microfluorimeter (365nm for excitation and 450nm for emission). Antiviral activity (IC50) of the test compound is determined by comparing the flourescence obtained in absence of compound to that obtained in the presence of compound.

[2] = Human alphaherpesvirus 3, HFF, read-out: IC50 (ug/ml) VZV
[3] = Human alphaherpesvirus 3, Fibroblast; read-out: % inhibition 10 ug/ml VZV
[4] = Human alphaherpesvirus 3; VZV strain Ellen in HFF cells; read-out: IC50 (ug/ml) VZV
[5] = Human alphaherpesvirus 1, HSV-1 in Vero cells

Structure (SMILES)	IC50 [1]	inhibition at 10 µg/mL (VZV strain Ellen; Human alphaherpesvirus 3, Fibroblast, read-out: % inhibition 10 ug/ml VZV)	IC50 (VZV strain Ellen; [2])	IC50 (HSV-1; Human alphaherpesvirus 1, Vero)	inhibition at 10 µg/mL (VZV strain Ellen; [3])	IC50 (VZV strain Ellen; [4])	IC50 (HSV-1; [5])
COc1cc(OC)c(NC(=S)Nc2ccc(NC(=O)c3ccccc3F)c(C(=O)O)c2)cc1Cl [Example 338, 5-[3-(5-Chloro-2,4-dimethoxy-phenyl)-thioureido]-2-(2-fluoro-benzoylamino)-benzoic acid]	35 µg/mL (≈ 69.5 µM)	13%	> 10 µg/mL	> 50 µg/mL			
CC(NC(=S)Nc1ccc(NC(=O)c2ccccc2F)c(-c2ccccc2)c1)c1ccc(F)cc1 (centres unmarked) [Example 1065, 2-Fluoro-N-(5-{3-[1-(4-fluoro-phenyl)-ethyl)-thioureido}-biphenyl-2-yl)-benzamide]	8.1 µg/mL (≈ 16.6 µM)		0.33 µg/mL (≈ 0.677 µM)	4.9 µg/mL (≈ 10 µM)			
COc1cc(NC(=O)c2ccccc2F)ccc1NC(=S)Nc1cc(Cl)c(C)cc1OC [Example 418, N-{4-[3-(5-Chloro-2-methoxy-4-methyl-phenyl)-thioureido]-3-methoxy-phenyl}-2-fluoro-benzamide]	3 µg/mL (≈ 6.33 µM)				10%	> 10 µg/mL	0.05 µg/mL (≈ 0.105 µM)
Cc1cc(NC(=S)NC(C)c2ccc(F)cc2)ccc1NC(=O)c1cc2ccccc2o1 (centres unmarked) [Example 1073, Benzofuran-2-carboxylic acid (4-{3-[1-(4-fluoro-phenyl)-ethyl]-thioureido}-2-methyl-phenyl)-amide]	6.3 µg/mL (≈ 14.1 µM)					0.47 µg/mL (≈ 1.05 µM)	4.6 µg/mL (≈ 10.3 µM)
CC(NC(=S)Nc1ccc(NC(=O)c2ccccc2F)c(N(C)C)c1)c1ccc(F)cc1 (centres unmarked) [Example 1049, N-(2-Dimethylamino-4-{3-[1-(4-fluoro-phenyl)-ethyl]-thioureido}-phenyl)-2-fluoro-benzamide]	4.5 µg/mL (≈ 9.9 µM)					0.07 µg/mL (≈ 0.154 µM)	8 µg/mL (≈ 17.6 µM)
O=C(Nc1ccc(NC(=S)NNc2cccc(Cl)c2)cc1)c1ccccc1F [Example 529, N-[4-({[2-(3-Chloro-phenyl)-hydrazino]-thioxomethyl}-amino)-phenyl]-2-fluoro-benzamide]	8.5 µg/mL (≈ 20.5 µM)				23%	9 µg/mL (≈ 21.7 µM)	1 µg/mL (≈ 2.41 µM)
CC(NC(=S)Nc1ccc(NC(=O)c2ccccc2F)c(C#N)c1)c1ccc(Br)cc1 (centres unmarked) [Example 1041, N-(4-{3-[1-(4-Bromo-phenyl)-ethyl]-thioureido}-2-cyano-phenyl)-2-fluoro-benzamide]	10.4 µg/mL (≈ 20.9 µM)					0.096 µg/mL (≈ 0.193 µM)	> 10 µg/mL
CC(NC(=S)Nc1ccc(NC(=O)c2ccccc2F)c(C(=O)c2ccccc2)c1)c1ccc(F)cc1 (centres unmarked) [Example 1044, N-(2-Benzoyl-4-{3-[1-(4-fluoro-phenyl)-ethyl]-thioureido}-phenyl)-2-fluoro-benzamide]	1.8 µg/mL (≈ 3.49 µM)					3.3 µg/mL (≈ 6.4 µM)	> 10 µg/mL
COc1cc(NC(=S)NC(C)c2ccc(F)cc2)ccc1NC(=O)c1ccccc1F (centres unmarked) [Example 1064, 2-Fluoro-N-(4-{3-[1-(4-fluoro-phenyl)-ethyl]-thioureido}-2-methoxy-phenyl)-benzamide]	4.5 µg/mL (≈ 10.2 µM)					0.04 µg/mL (≈ 0.0906 µM)	3.9 µg/mL (≈ 8.83 µM)
COc1cc(OC)c(NC(=S)Nc2c(Cl)cc(NC(=O)c3ccccc3F)cc2Cl)cc1Cl [Example 1026, N-{3,5-Dichloro-4-[3-(5-chloro-2,4-dimethoxy-phenyl)-thioureido]-phenyl}-2-fluoro-benzamide]	> 10 µg/mL					> 10 µg/mL	0.15 µg/mL (≈ 0.284 µM)
COc1cc(OC)c(NC(=S)Nc2ccc(NC(=O)c3ccccc3F)c(C(=O)Nc3ccccc3)c2)cc1Cl [Example 301, 5-[[[(5-Chloro-2,4-dimethoxyphenyl)amino]thioxomethyl]amino]-2-[(2-fluorobenzoyl)amino]-N-phenyl-benzamide]	> 10 µg/mL				10%	> 10 µg/mL	10 µg/mL (≈ 17.3 µM)
O=C(Nc1ccc(NC(=S)Nc2ccc(NC(=O)c3ccccc3F)cc2)cc1Cl)c1ccccc1 [Example 401, N-{4-[({[4-(Benzoylamino)-3-chloro-phenyl]-amino}-thioxomethyl)-amino]-phenyl}-2-fluoro-benzamide]	2.5 µg/mL (≈ 4.82 µM)				70%	> 15 µg/mL	> 10 µg/mL
CCCCOc1cc(NC(=S)NC(C)c2ccc(F)cc2)ccc1NC(=O)c1ccccc1F (centres unmarked) [Example 1055, N-(2-Butoxy-4-{3-[1-(4-fluoro-phenyl)-ethyl]-thioureido}-phenyl)-2-fluoro-benzamide]	> 10 µg/mL					0.32 µg/mL (≈ 0.662 µM)	> 10 µg/mL
COc1cc(OC)c(NC(=S)Nc2ccc(NC(=O)c3ccccc3F)c(C(F)(F)F)c2)cc1Cl [Example 402, N-{4-[3-(5-Chloro-2,4-dimethoxy-phenyl)-thioureido]-2-trifluoromethyl-phenyl}-2-fluoro-benzamide]	4 µg/mL (≈ 7.58 µM)				13%	> 10 µg/mL	> 10 µg/mL
CC(NC(=S)Nc1ccc(NC(=O)c2ccccc2F)c(C(F)(F)F)c1)c1cc2ccccc2o1 (centres unmarked) [Example 1037, N-{4-[3-(1-Benzofuran-2-yl-ethyl)-thioureido]-2-trifluoromethyl-phenyl}-2-fluoro-benzamide]	2 µg/mL (≈ 3.99 µM)					0.027 µg/mL (≈ 0.0538 µM)	3.6 µg/mL (≈ 7.18 µM)
CCOc1cc(NC(=S)NC(C)c2ccc(C#N)cc2)ccc1NC(=O)c1ccccc1F (centres unmarked) [Example 1061, N-(4-{3-[1-(4-Cyano-phenyl)-ethyl]-thioureido}-2-ethoxy-phenyl)-2-fluoro-benzamide]	7.6 µg/mL (≈ 16.4 µM)					0.64 µg/mL (≈ 1.38 µM)	> 10 µg/mL
CC(NC(=S)Nc1ccc(NC(=O)c2ccccc2F)c(OCc2ccccc2)c1)c1ccc(F)cc1 (centres unmarked) [Example 1051, N-(2-Benzyloxy-4-{3-[1-(4-fluoro-phenyl)-ethyl]-thioureido}-phenyl)-2-fluoro-benzamide]	> 10 µg/mL					0.7 µg/mL (≈ 1.35 µM)	> 10 µg/mL
COc1cc(OC)c(NC(=S)Nc2ccc(NC(=O)c3ccccc3F)cc2OC)cc1Cl [Example 389, N-{4-[3-(5-Chloro-2,4-dimethoxy-phenyl)-thioureido]-3-methoxy-phenyl}-2-fluoro-benzamide]	1.5 µg/mL (≈ 3.06 µM)				9%	> 10 µg/mL	0.04 µg/mL (≈ 0.0816 µM)
CC(=O)Nc1ccc(NC(=S)Nc2ccc(NC(=O)c3ccccc3)c(Cl)c2)cc1 [Example 400, N-{4-[3-(4-Acetylamino-phenyl)-thioureido]-2-chloro-phenyl}-benzamide]	> 10 µg/mL				15%	> 10 µg/mL	> 10 µg/mL
CC(NC(=S)Nc1ccc(NC(=O)c2cc3ccccc3cn2)c(C(F)(F)F)c1)c1ccc(F)cc1 (centres unmarked) [Example 1068, Isoquinoline-3-carboxylic acid (4-{3-[1-(4-fluoro-phenyl)-ethyl]-thioureido}-2-trifluoromethyl-phenyl)-amide]	> 10 µg/mL					0.04 µg/mL (≈ 0.078 µM)	> 10 µg/mL
Cc1cc(NC(=S)NC(C)c2ccc(F)cc2)ccc1NC(=O)c1cc2ccccc2cn1 (centres unmarked) [Example 1074, Isoquinoline-3-carboxylic acid (4-{3-[1-(4-fluoro-phenyl)-ethyl]-thioureido}-2-methyl-phenyl)-amide]	4 µg/mL (≈ 8.72 µM)					0.07 µg/mL (≈ 0.153 µM)	5.8 µg/mL (≈ 12.6 µM)
